Reference: patent publication US10407725B2, “Methods of treating autoimmune conditions in patients with genetic variations in DcR3 or in a DcR3 network gene” (The Children's Hospital of Philadelphia, priority 2015, dated 2019)
d = 2'-deoxy (DNA); r = 2'-OH (RNA)

Legend:
[1] = tested on: patient EBV cells with heterozygous risk allele (1/2); experiment: MTT proliferation assay of nucleofected cells treated with sFasL; assay type: cell-based, human; details: cells treated with sFasL 24 h post nucleofection; compared with control siRNA (CsiRNA) plus sFasL
Description: The effect of DcR3 on cell proliferation was measured by the colorimetric MTT assay using an MTT (Microtiter-tetrazolium, Sigma, USA) based assay. Briefly, the cells (5,000/ml) were incubated in triplicate in a 96-well plate (Costar, Cambridge, Mass., USA) in a final volume of 0.2 ml for the indicated times. Thereafter, 20 μl of MTT solution (5 g/L) was added to each well and then incubated for 12 h. After centrifugation, the supernatant was removed from each well. The colored formazan crystal produced from MTT was dissolved in 0.15 ml of DMSO and then the optical density (OD) value was measured on a microplate reader. Each experiment was performed in duplicate and repeated five times.
(§1) Post 24, 48 and 72 hours of nucleofection, cells were harvested and whole cell lysates were evaluated for DcR3 expression by immunoblot analysis. […] Nucleofection had no adverse effect on cell viability (data not shown). In addition, cells nucleofected with control and DcR3 siRNA post 24 h were treated with sFasL and analysed for cell death using MTT Proliferation assay.

DcR3 = experiment: siRNA knockdown of DcR3 expression, immunoblot of whole cell lysates; assay type: cell-based, human; details: P (1/2) EBV cells, 100 nM siRNA, versus control siRNA; whole cell lysates 24, 48 and 72 hours post nucleofection
Description: The expression of DcR3 was reduced using siRNAs in the EBV transformed cell lines derived from control and IBD patients harboring risk variants in TNFRSF6B (A allele). Briefly, 3×10^6 cells were transfected with 100 nM DcR3 siRNA duplexes or with DcR3 non-silence control using Amaxa Nucleofector Kit and program T-20. The siRNA-transfected cells were incubated for 48 h after nucleofection and the degree of knockdown relative to introduction of control siRNA was confirmed by western blot using DcR3 mouse monoclonal antibody (Abgent) on whole cell lysates. The 21-mer siRNAs were synthesized by DHARMACON. The DcR3 siRNA sequences were as follows: sense sequence, 5′-GCC AGG CUC UUC CUC CCA UdTdT-3′ (SEQ ID NO: 1); antisense sequence, 5′-AUG GGA GGA AGA GCC UGG CdTdT-3′ (SEQ ID NO: 2). The non-silence control siRNA sequences were as follows: sense sequence, 5′-GCC CGC UUU CCC UCA GCA UdTdT-3′ (SEQ ID NO: 3); antisense sequence, 5′-AUG CUG AGG GAA AGC GGG C-3 (SEQ ID NO: 4).
as §1

[2] = tested on: canonical pathway in MM cell lines and tumors; details: cited from earlier work

Compound	cell growth (MTT) after sFasL treatment [1]	DcR3 expression post nucleofection (DcR3)	off-target effect on canonical NF-κB pathway [2]
DcR3 siRNA: 21-mer siRNA duplex, sense 5′-GCC AGG CUC UUC CUC CCA UdTdT-3′, antisense 5′-AUG GGA GGA AGA GCC UGG CdTdT-3′, synthesized by DHARMACON (sense GCCAGGCUCUUCCUCCCAUTT; antisense AUGGGAGGAAGAGCCUGGCTT; sugars from the 5' end r19 d2, backbone not given here)	decrease in cell growth	reduced DcR3 levels first seen at 24 h and maintained for at least 48 h	
CC(C)C[C@H](NC(=O)[C@H](Cc1ccccc1)NC(=O)c1cnccn1)B(O)O [Velcade bortezomib, bortezomib]			induce up-regulation of the canonical pathway
